In patent US20240270762A1, “PENICILLIN-BINDING PROTEIN INHIBITORS” (priority 2021, published 2024):
Values after ≈ are worked out from the molar mass of the structure shown.

Assays:
[1] = test system: A. baumannii CDC-0045; experiment: microbe, parasite or virus in culture; format: cell-based; conditions: Acinetobacter baumannii, CDC0045, read-out: MIC, A. baumannii CDC-0045
[2] = test system: B. humptydooensis ATCC BAA-2767; experiment: microbe, parasite or virus in culture; format: cell-based; conditions: Burkholderia humptydooensis, ATCCBAA2767, read-out: Minimum inhibitory concentration (MIC), B. humptydooensis ATCC BAA-2767
[3] = test system: N. gonorrhoeae FA1090; experiment: Liquid broth MIC in Fastidious broth; conditions: Neisseria gonorrhoeae, FA1090, read-out: Minimum Inhibitory Concentration (MIC), N. gonorrhoeae FA 1090
[4] = test system: P. aeruginosa (ΔmexAB-oprM); experiment: Broth microdilution MIC in iron-depleted CAMHB (IDM); format: cell-based; conditions: Pseudomonas aeruginosa; iron-depleted CAMHB (IDM); […]; read-out: Minimum inhibitory concentration, P. aeruginosa ΔmexAB-oprM
[5] = test system: N. gonorrhoeae CDC-0197; experiment: Liquid broth MIC in Fastidious broth; conditions: Neisseria gonorrhoeae, CDC0197, read-out: Minimum Inhibitory Concentration (MIC), N. gonorrhoeae CDC-0197
Experimental: ATCC 49226, FA1090, MS11, WHO G, WHO L, and WHO M produce wild type or wild-type like PBP2. WHO K, WHO X, WHO Z, WHO Q, and CDC-0197 produce mosaic PBP2. Liquid broth-based assays were used for antibacterial testing of PBP inhibitors in Neisseria gonorrhoeae. Briefly, cryo-preserved bacterial cultures of clinical strains were streaked for isolation on Chocolate Agar (72 g/L (2×) GC Agar Base (BD #228950) and 2% (2×) Hemoglobin was autoclaved at 121° C. for 20 minutes to sterilize. Once cooled to ˜50° C. the 2×GC Agar Base and 2× Hemoglobin solutions are combined and 1% IsoVitaleX Enrichment (BD #211876) was added to the solution). Strains were incubated at 36° C. and 5% CO2 to allow growth of colonies, 24 hours before inoculum preparation. 2-fold serial dilutions of test compounds were conducted in a 96 well plate with a final volume of 75 μL per well at 2-fold the final desired concentration in Fastidious broth (Remel #R07664). For preparation of assay inoculum, a direct suspension was prepared by aseptically swabbing 10-15 colonies from agar plates into culture tubes containing 2 mL of fresh sterile saline. After the dilution plates were set up, direct suspensions were then diluted in a cuvette containing sterile saline and the optical density was measured at 600 nm. Inocula were diluted such that 75 μL of this culture in Fastidious broth results in a starting bacterial concentration of 5×10^5 CFU/mL when added to the dilution plates. The plates were incubated for ˜24 hours at 36° C. and 5% CO2.

[6] = molecular target: T1, PBP3 from Escherichia coli (K-12) (Escherichia coli, UniProt P0AD68); experiment: Bocillin-FL fluorescence polarization competition binding, E. coli PBP3
T1 construct: made in house
Method in brief: (§1)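 Purified PBP was preincubated with inhibitor (E. coli PBP3 1.5 μM, 30 min; P. aeruginosa PBP3 0.75 μM, A. baumannii PBP3 0.2 μM and PBP1a 1 μM, 15 min), then Bocillin-FL (0.1 μM; 0.05 μM for PBP1a) added and FP read up to 60 min. EC50 = 50% loss of bound probe.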

[7] = test system: N. gonorrhoeae WHO Z; experiment: Liquid broth MIC in Fastidious broth; conditions: Neisseria gonorrhoeae, read-out: Minimum Inhibitory Concentration (MIC), N. gonorrhoeae WHO Z
Experimental: Additional antibacterial testing of the series was performed in 8 reference strains of N. gonorrhoeae (ATCC 49226, FA1090, MS 11, WHO G, WHO L, WHO M, WHO K, WHO X, WHO Z, WHO Q, CDC-0197). ATCC 49226, FA1090, MS11, WHO G, WHO L, and WHO M produce wild type or wild-type like PBP2. WHO K, WHO X, WHO Z, WHO Q, and CDC-0197 produce mosaic PBP2. Liquid broth-based assays were used for antibacterial testing of PBP inhibitors in Neisseria gonorrhoeae. Briefly, cryo-preserved bacterial cultures of clinical strains were streaked for isolation on Chocolate Agar (72 g/L (2×) GC Agar Base (BD #228950) and 2% (2×) Hemoglobin was autoclaved at 121° C. for 20 minutes to sterilize. Once cooled to ˜50° C. the 2×GC Agar Base and 2× Hemoglobin solutions are combined and 1% IsoVitaleX Enrichment (BD #211876) was added to the solution). Strains were incubated at 36° C. and 5% CO2 to allow growth of colonies, 24 hours before inoculum preparation. 2-fold serial dilutions of test compounds were conducted in a 96 well plate with a final volume of 75 μL per well at 2-fold the final desired concentration in Fastidious broth (Remel #R07664). For preparation of assay inoculum, a direct suspension was prepared by aseptically swabbing 10-15 colonies from agar plates into culture tubes containing 2 mL of fresh sterile saline. After the dilution plates were set up, direct suspensions were then diluted in a cuvette containing sterile saline and the optical density was measured at 600 nm. Inocula were diluted such that 75 μL of this culture in Fastidious broth results in a starting bacterial concentration of 5×10^5 CFU/mL when added to the dilution plates. The plates were incubated for ˜24 hours at 36° C. and 5% CO2.

[8] = test system: N. gonorrhoeae WHO L; experiment: Liquid broth MIC in Fastidious broth; conditions: Neisseria gonorrhoeae, read-out: Minimum Inhibitory Concentration (MIC), N. gonorrhoeae WHO L
[9] = molecular target: T2, PBP3 from Pseudomonas aeruginosa (PAO1) (Pseudomonas aeruginosa, UniProt G3XD46); experiment: Bocillin-FL fluorescence polarization competition binding, P. aeruginosa PBP3; conditions: Binding affinity to P. aeruginosa PBP3; fluorescence polarization competition binding assay using Bocillin-FL; read-out: P. aeruginosa PBP3 Potency
T2 construct: made in house
Method in brief: as §1

[10] = test system: A. baumannii ATCC 19606; experiment: microbe, parasite or virus in culture; format: cell-based; conditions: Acinetobacter baumannii, ATCC19606, read-out: MIC, A. baumannii ATCC 19606
[11] = test system: N. gonorrhoeae ATCC 49226; experiment: Liquid broth MIC in Fastidious broth; conditions: Neisseria gonorrhoeae, ATCC49226, read-out: Minimum Inhibitory Concentration (MIC), N. gonorrhoeae ATCC 49226
[12] = test system: N. gonorrhoeae WHO G; experiment: Liquid broth MIC in Fastidious broth; conditions: Neisseria gonorrhoeae, read-out: Minimum Inhibitory Concentration (MIC), N. gonorrhoeae WHO G
[13] = test system: B. thailandensis ATCC 700388; experiment: microbe, parasite or virus in culture; format: cell-based; conditions: Burkholderia thailandensis, ATCC700388, read-out: Minimum inhibitory concentration (MIC), B. thailandensis ATCC 700388
[14] = test system: P. aeruginosa ATCC 27853; experiment: microbe, parasite or virus in culture; format: cell-based; conditions: Pseudomonas aeruginosa, ATCC27853, read-out: Minimum inhibitory concentration, P. aeruginosa ATCC 27853
[15] = test system: N. gonorrhoeae MS11; experiment: Liquid broth MIC in Fastidious broth; conditions: Neisseria gonorrhoeae, MS11, read-out: Minimum Inhibitory Concentration (MIC), N. gonorrhoeae MS11

T1 sequence (P0AD68 1-577): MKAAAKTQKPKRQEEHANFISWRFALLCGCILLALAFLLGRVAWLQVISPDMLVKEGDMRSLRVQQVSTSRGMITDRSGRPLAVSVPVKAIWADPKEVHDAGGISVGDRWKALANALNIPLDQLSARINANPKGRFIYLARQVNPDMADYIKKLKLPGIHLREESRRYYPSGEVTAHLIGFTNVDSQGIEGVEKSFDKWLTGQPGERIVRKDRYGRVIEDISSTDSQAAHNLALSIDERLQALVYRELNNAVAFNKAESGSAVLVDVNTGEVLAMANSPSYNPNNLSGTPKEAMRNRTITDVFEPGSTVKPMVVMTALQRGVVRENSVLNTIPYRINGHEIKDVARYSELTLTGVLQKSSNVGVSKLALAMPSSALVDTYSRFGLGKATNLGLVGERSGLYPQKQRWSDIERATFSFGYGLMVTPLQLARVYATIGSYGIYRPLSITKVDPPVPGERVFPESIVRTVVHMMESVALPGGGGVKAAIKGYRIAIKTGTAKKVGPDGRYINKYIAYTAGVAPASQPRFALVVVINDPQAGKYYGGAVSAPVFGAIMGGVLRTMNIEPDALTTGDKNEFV
T2 sequence (G3XD46 whole entry): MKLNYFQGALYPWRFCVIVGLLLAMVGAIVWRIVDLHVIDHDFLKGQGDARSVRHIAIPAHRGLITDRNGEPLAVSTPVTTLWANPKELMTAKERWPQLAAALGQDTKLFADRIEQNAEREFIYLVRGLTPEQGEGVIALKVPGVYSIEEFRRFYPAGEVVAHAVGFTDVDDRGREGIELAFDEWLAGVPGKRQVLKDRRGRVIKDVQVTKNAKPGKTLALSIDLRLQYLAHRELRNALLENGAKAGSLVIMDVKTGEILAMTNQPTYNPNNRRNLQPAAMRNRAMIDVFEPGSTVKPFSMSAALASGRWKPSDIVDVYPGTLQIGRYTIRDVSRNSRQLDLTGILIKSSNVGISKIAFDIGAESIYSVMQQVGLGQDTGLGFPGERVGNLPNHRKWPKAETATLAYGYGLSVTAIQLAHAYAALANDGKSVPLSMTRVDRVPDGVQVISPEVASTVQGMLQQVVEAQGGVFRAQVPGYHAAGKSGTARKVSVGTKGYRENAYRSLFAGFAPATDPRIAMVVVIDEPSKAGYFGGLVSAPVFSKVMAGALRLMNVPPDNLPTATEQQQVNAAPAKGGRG

| SMILES | MIC [1] [µg/mL] | MIC [2] [µg/mL] | MIC [3] [µg/mL] | MIC [4] [µg/mL] | MIC [5] [µg/mL] | EC50 [6] [µM] | MIC [7] [µg/mL] | MIC [8] [µg/mL] | IC50 [9] [µM] | MIC [10] [µg/mL] | MIC [11] [µg/mL] | MIC [12] [µg/mL] | MIC [13] [µg/mL] | MIC [14] [µg/mL] | MIC [15] [µg/mL] |
| --- | --- | --- | --- | --- | --- | --- | --- | --- | --- | --- | --- | --- | --- | --- | --- |
| O=C(NCCN1CCN(C(=O)N[C@@H](C(=O)N[C@H]2Cc3ccc(F)c(C(=O)O)c3OB2O)c2cc(F)c(O)c(O)c2Cl)C(=O)C1=O)Nc1ccncc1 [Example 221, (R)-3-((R)-2-(2-chloro-5-fluoro-3,4-dihydroxyphenyl)-2-(2,3-dioxo-4-(2-(3-(pyridin-4-yl)ureido)ethyl)piperazine-1-carboxamido)acetamido)-7-fluoro-2-hydroxy-3,4-dihydro-2H-benzo[e][1,2]oxaborinine-8-carboxylic acid] | < 1 | < 1 | 1 to 2 (≈ 1.34 to 2.68 µM) | < 1 | > 64 | < 10 | > 64 | > 64 | < 10 | < 1 | 16 to 32 (≈ 21.5 to 42.9 µM) | 4 to 8 (≈ 5.36 to 10.7 µM) | 2 to 4 (≈ 2.68 to 5.36 µM) | < 1 | 16 to 32 (≈ 21.5 to 42.9 µM) |
| O=C(NCCN1CCN(C(=O)N[C@@H](C(=O)N[C@H]2Cc3ccc(F)c(C(=O)O)c3OB2O)c2cc(F)c(O)c(O)c2Cl)C(=O)C1=O)Nc1cccnc1 [Example 222, (R)-3-((R)-2-(2-chloro-5-fluoro-3,4-dihydroxyphenyl)-2-(2,3-dioxo-4-(2-(3-(pyridin-3-yl)ureido)ethyl)piperazine-1-carboxamido)acetamido)-7-fluoro-2-hydroxy-3,4-dihydro-2H-benzo[e][1,2]oxaborinine-8-carboxylic acid] | < 1 | 2 to 4 (≈ 2.68 to 5.36 µM) | 1 to 2 (≈ 1.34 to 2.68 µM) | < 1 | > 64 | < 10 | > 64 | > 64 | < 10 | < 1 | 16 to 32 (≈ 21.5 to 42.9 µM) | 4 to 8 (≈ 5.36 to 10.7 µM) | 2 to 4 (≈ 2.68 to 5.36 µM) | < 1 | 16 to 32 (≈ 21.5 to 42.9 µM) |
| CN(CCN1CCN(C(=O)NC(C(=O)N[C@H]2Cc3ccc(F)c(C(=O)O)c3OB2O)c2cc(F)c(O)c(O)c2Cl)C(=O)C1=O)S(=O)(=O)c1ccc(C(N)=O)cc1 (stereo partly drawn) [Example 223, (3R)-3-(2-(4-(2-((4-carbamoyl-N-methylphenyl)sulfonamido)ethyl)-2,3-dioxopiperazine-1-carboxamido)-2-(2-chloro-5-fluoro-3,4-dihydroxyphenyl)acetamido)-7-fluoro-2-hydroxy-3,4-dihydro-2H-benzo[e][1,2]oxaborinine-8-carboxylic acid] | < 1 | < 1 | 4 to 8 (≈ 4.86 to 9.72 µM) | < 1 | > 64 | < 10 | 16 to 32 (≈ 19.4 to 38.9 µM) | > 64 | < 10 | < 1 | 16 to 32 (≈ 19.4 to 38.9 µM) | 16 to 32 (≈ 19.4 to 38.9 µM) | 2 to 4 (≈ 2.43 to 4.86 µM) | 2 to 4 (≈ 2.43 to 4.86 µM) | 16 to 32 (≈ 19.4 to 38.9 µM) |
| CN(CCN1CCN(C(=O)NC(C(=O)N[C@H]2Cc3ccc(F)c(C(=O)O)c3OB2O)c2cc(F)c(O)c(O)c2Cl)C(=O)C1=O)S(=O)(=O)c1cccc(C(N)=O)c1 (stereo partly drawn) [Example 224, (3R)-3-(2-(4-(2-((3-carbamoyl-N-methylphenyl)sulfonamido)ethyl)-2,3-dioxopiperazine-1-carboxamido)-2-(2-chloro-5-fluoro-3,4-dihydroxyphenyl)acetamido)-7-fluoro-2-hydroxy-3,4-dihydro-2H-benzo[e][1,2]oxaborinine-8-carboxylic acid] | < 1 | < 1 | 4 to 8 (≈ 4.86 to 9.72 µM) | < 1 | > 64 | < 10 | > 64 | > 64 | < 10 | < 1 | 16 to 32 (≈ 19.4 to 38.9 µM) | 16 to 32 (≈ 19.4 to 38.9 µM) | 2 to 4 (≈ 2.43 to 4.86 µM) | 2 to 4 (≈ 2.43 to 4.86 µM) | > 64 |
| CN(CCN1CCN(C(=O)N[C@@H](C(=O)N[C@H]2Cc3ccc(F)c(C(=O)O)c3OB2O)c2cc(F)c(O)c(O)c2Cl)C(=O)C1=O)Cc1cccc(C(N)=O)c1 [Example 225, (R)-3-((R)-2-(4-(2-((3-carbamoylbenzyl)(methyl)amino)ethyl)-2,3-dioxopiperazine-1-carboxamido)-2-(2-chloro-5-fluoro-3,4-dihydroxyphenyl)acetamido)-7-fluoro-2-hydroxy-3,4-dihydro-2H-benzo[e][1,2]oxaborinine-8-carboxylic acid] | < 1 | < 1 | 1 to 2 (≈ 1.29 to 2.59 µM) | < 1 | 16 to 32 (≈ 20.7 to 41.4 µM) | 10 to 50 | 16 to 32 (≈ 20.7 to 41.4 µM) | > 64 | < 10 | < 1 | 16 to 32 (≈ 20.7 to 41.4 µM) | 16 to 32 (≈ 20.7 to 41.4 µM) | < 1 | 2 to 4 (≈ 2.59 to 5.18 µM) | 16 to 32 (≈ 20.7 to 41.4 µM) |
| CN(CCN1CCN(C(=O)N[C@@H](C(=O)N[C@H]2Cc3ccc(F)c(C(=O)O)c3OB2O)c2cc(F)c(O)c(O)c2Cl)C(=O)C1=O)Cc1ccc(C(N)=O)cc1 [Example 226, (R)-3-((R)-2-(4-(2-((4-carbamoylbenzyl)(methyl)amino)ethyl)-2,3-dioxopiperazine-1-carboxamido)-2-(2-chloro-5-fluoro-3,4-dihydroxyphenyl)acetamido)-7-fluoro-2-hydroxy-3,4-dihydro-2H-benzo[e][1,2]oxaborinine-8-carboxylic acid] | < 1 | < 1 | 1 to 2 (≈ 1.29 to 2.59 µM) | < 1 | > 64 | < 10 | 16 to 32 (≈ 20.7 to 41.4 µM) | > 64 | < 10 | < 1 | 16 to 32 (≈ 20.7 to 41.4 µM) | 16 to 32 (≈ 20.7 to 41.4 µM) | < 1 | 2 to 4 (≈ 2.59 to 5.18 µM) | 16 to 32 (≈ 20.7 to 41.4 µM) |
| O=C(NCCCN1CCN(C(=O)NC(C(=O)N[C@H]2Cc3ccc(F)c(C(=O)O)c3OB2O)c2cc(F)c(O)c(O)c2Cl)C(=O)C1=O)Nc1ccc(O)cc1 (stereo partly drawn) [Example 227, (3R)-3-(2-(2-chloro-5-fluoro-3,4-dihydroxyphenyl)-2-(4-(3-(3-(4-hydroxyphenyl)ureido)propyl)-2,3-dioxopiperazine-1-carboxamido)acetamido)-7-fluoro-2-hydroxy-3,4-dihydro-2H-benzo[e][1,2]oxaborinine-8-carboxylic acid] | < 1 | < 1 | 1 to 2 (≈ 1.29 to 2.58 µM) | < 1 | > 64 | 10 to 50 | 16 to 32 (≈ 20.6 to 41.3 µM) | > 64 | < 10 | < 1 | 16 to 32 (≈ 20.6 to 41.3 µM) | 4 to 8 (≈ 5.16 to 10.3 µM) | < 1 | < 1 | 16 to 32 (≈ 20.6 to 41.3 µM) |
